{"source": "patent US6492344B1", "about": "“Syndecan enhancer element and syndecan stimulation of cellular differentiation” (Biotie Therapies Corp., priority 1993, dated 2002)", "type_in_all_cases": "cell-based, mouse", "key": {"[1]": {"tested_on": "FGF-inducible Response Element (FiRE)", "experiment": "pFiRE CAT reporter in syndecan-1 transfected 3T3 cells (3T3 1.5)", "details": "3T3 1.5 cells expressing high levels of syndecan-1, versus wild type 3T3", "source_text": "The Enhancer is Not Functional in 3T3 Cells Expressing High Levels of Syndecan-1. Syndecan-1 transfected 3T3 cells (3T3 1.5) and wild type 3T3 cells were transiently transfected with the pFiRE construct, treated with FGF or a negative control, and analyzed for reporter gene (CAT) expression. The results are depicted in FIG. 16. The closed columns indicate relative CAT activity in control cells (without FGF treatment) while the labeled columns depict relative CAT activity in FGF-treated cells."}, "syndecan-1 gene": {"tested_on": "syndecan-1 gene", "experiment": "Nuclear run-off of syndecan-1 transcription in 3T3NIH cells", "experimental": "The same cells were exposed to 10 ng/ml of FGF-2 for 4 hours and 24 hours with or without exposure to FGF (Control) followed by the isolation of nuclei for the run-off experiment. c-jun or nur transcription was used as a positive control and β-actin as a loading control. In nuclei isolated 4 hours after FGF exposure the level of transcription of the syndecan-1 gene was elevated as were the levels for c-jun and nur as positive controls."}, "[2]": {"tested_on": "nuclear factors binding FiRE motifs 1-5", "experimental": "The Enhancer Comprises Five DNA Binding Motifs. Plasmid pFiRE was end-labeled using Klenow fragment and […]. DNAse I footprinting was performed with labeled pFiRE vector alone (naked), together with FGF-induced nuclear extracts (FGF-2), and together with non-induced nuclear extracts (control). To obtain nuclear extracts, NIH3T3 cells were plated on 16 cm dishes and treated with or without FGF-2 for 1 day. Nuclear proteins were extracted using a modification described by Lee et al., Gene Anal. Techn. 5:22-31 (1988). Protein concentrations were measured by the Bradford method.\nIn a 12 μl reaction, 5 μg of the nuclear extracts were incubated with labeled oligonucleotide, 2 μg of poly-d[I-C] and 2×reaction buffer, i.e., […], pH 7.5; 100 mM NaCl; 2 mM EDTA; and 10% glycerol for 15 minutes at room temperature. Non-labeled competitor oligonucleotides were used at 100-fold molar excess. The complexes were analyzed by electrophoresis in a 4.5% polyacrylamide gel. For supershifts, 0.1 μg of specific antibody was added to the reaction 15 minutes before the labeled oligonucleotide. […]\nThese motifs was further analyzed by competing the binding of nuclear factors with a molar excess of specific (s) and non-specific (ns) oligonucleotides. […] The resulting complexes were analyzed by the gel retardation analysis described above. […]"}}}
{"substance": "FGF-2: Basic fibroblast growth factor (FGF-2 or bFGF); recombinant human", "values": [{"measurement": "activation of CAT expression from pFiRE", "setting": "[1]", "result": "significantly reduced"}, {"measurement": "transcription of syndecan-1 (run-off)", "setting": "syndecan-1 gene; after 24 hours of 10 ng/ml FGF-2", "result": "not detectable"}, {"measurement": "level of transcription of the syndecan-1 gene (run-off)", "setting": "syndecan-1 gene; nuclei isolated 4 hours after 10 ng/ml FGF exposure", "result": "elevated"}, {"measurement": "nuclear protein binding to motifs 1 and 2", "setting": "[2]", "result": "do not show binding to an FGF-2 inducible factor"}, {"measurement": "nuclear protein binding to motifs 3, 4 and 5", "setting": "[2]", "result": "bind at least one specific FGF-2 inducible nuclear protein"}]}
